Assays:
SK-N-AS = assay: Cell growth, CellTitor-Glo assay, 72 h; type: cell-based; settings: Homo sapiens
Experimental: (§1) The human NB cell lines, SK-N-DZ, SK-N-BE(2)c, SK-N-AS, and LAN-5 obtained from the American Type Culture Collection (Rockville, MD), were cultured in DMEM with 10% fetal bovine serum (FBS), 100 units/ml penicillin, and 100 μg/ml streptomycin in the presence of 5% CO2 at 37° C. Human PBMCs from a healthy donor were purchased from Sanguine BioSciences (Valencia, CA) and grown in RPMI1640 with 10% FBS, 100 units/ml penicillin, 100 μg/ml streptomycin, and 10 ng/ml IL-2 in the presence of 5% CO2 at 37° C. Human embryonic progenitor cell line 7SM0032 was acquired from Millipore (Billerica, MA) and grown in the hEPM-1 Media Kit purchased from the same company. The plasmid pCBASce expresses the rare cutting I-SceI meganuclease. The U20S-derived cell lines, DR-GFP and EJ5-GFP, each contain a stably transfected reporter gene for DSB repair mediated by HR and end joining (EJ), respectively. These cell lines were cultured in DMEM medium with 10% FBS at 37° C. in the presence of 5% CO2.
(§2) To measure the effect of the compounds on cell growth, cells were seeded at 3×10^4/ml into a 96-well plate. Once attached, cells were treated with various concentrations of AOH1160 for 72 h. Cell growth was measured by the CellTitor-Glo assay (Promega, Madison, WI) according to the manufacturer's instructions. To measure apoptosis, cells were seeded at 1×10^5/ml onto a chamber slide. Once attached, cells were treated with the 500 nM AOH1160 for 24 h. Cells were fixed and analyzed by a TUNEL assay using the TMR red in situ cell death detection kit (Roche Diagnostics, Indianapolis, IN).

neuroblastoma cell lines = assay: IC50 in Table 3, cell line not stated; type: cell-based; settings: Homo sapiens
Source text: In addition numerous analogs related to AOH1160 were screened in numerous neuroblastoma cell lines for anti-cancer activity (Table 2). AOH1160 was screened for anti-cancer activity in additional cancer cell lines besides neuroblastoma (Table 3).

7SM0032 = assay: Cell growth, CellTitor-Glo assay, 72 h; type: cell-based, human; settings: human neural crest stem cells (7SM0032)
Experimental: as §1, §2

PBMC = assay: Cell growth, CellTitor-Glo assay, 72 h; type: cell-based, human
Experimental: as §1, §2

NB cell lines = assay: Cell viability assay on NB cell lines; type: cell-based, human; settings: Homo sapiens; multiple NB cell lines; read-out: IC50 range over NB cell lines
Experimental: as §2
To identify small molecule compounds that target the PCNA and FEN1 interface, we started with known crystal structures of the PCNA/FEN1 complex that are available from the RCSB protein database. To improve the likelihood of identifying novel small molecules that specifically target caPCNA, we focused our virtual screen on the binding pocket in PCNA delineated by residues L126 and Y133 and screened databases consisting of more than 6.8 million chemical structures available at the AMRI. A set of 57 compounds identified by the virtual screen was acquired and further tested in a cell viability assay. A compound (AOH39) was selected for further development due to its anti-cancer activity and selectivity.

SK-N-BE(2)c = assay: Cell growth, CellTitor-Glo assay, 72 h; type: cell-based; settings: Homo sapiens
Experimental: as §1, §2

SK-N-DZ = assay: Cell growth, CellTitor-Glo assay, 72 h; type: cell-based; settings: Homo sapiens
Experimental: as §1, §2

Row | IC50 (SK-N-AS) | IC50 (neuroblastoma cell lines) | Compound | other results
1 | 35 µM | 35 µM | O=C(CNC(=O)c1nccc2ccccc12)Nc1ccccc1Oc1ccccc1 [#1165] | –
2 | – | – | O=C(CNC(=O)c1cccc2ccccc12)Nc1ccccc1Cc1ccccc1 [AOH39, N-(2-((2-benzylphenyl)amino)-2-oxoethyl)-1-naphthamide, reference compound] | IC50 (7SM0032): ~100 µM; IC50 (PBMC; human peripheral blood mononuclear cells (PBMC)): 15.4 µM; IC50 (NB cell lines): 1.3 to 2.8 µM
3 | > 30 µM | > 30 µM | O=C(CNC(=O)c1cncc2ccccc12)Nc1ccc(Oc2ccncc2)cc1 [AOH1180] | –
4 | 1.1 µM | 1.1 µM | O=C(CNC(=O)c1cccc2ccccc12)Nc1ccc(Oc2ccncc2)cc1 [#1178] | –
5 | 0.185 µM | – | O=C(CNC(=O)c1cccc2ccccc12)Nc1ccc(Cl)cc1Oc1ccccc1 [PCNA4] | IC50 (SK-N-BE(2)c): 0.5 µM; IC50 (SK-N-DZ): 0.447 µM; IC50 (PBMC; Homo sapiens, PBMC (non-malignant)): > 20 µM
6 | > 50 µM | > 50 µM | O=C(CNC(=O)c1cccc2ccccc12)Nc1ccccc1Oc1ccncc1 [#1162] | –
7 | > 30 µM | > 30 µM | O=C(CNC(=O)c1nccc2ccccc12)Nc1ccc(Oc2ccncc2)cc1 [AOH1179] | –
8 | > 30 µM | 34 µM | O=C(CNC(=O)c1nccc2ccccc12)Nc1cccc(Oc2ccncc2)c1 [#1166] | –
9 | 21.6 µM | 21.6 µM | O=C(CNC(=O)c1cccc2ccccc12)Nc1cccc(Oc2ccncc2)c1 [#1161] | –
10 | – | > 30 µM | O=C(CNC(=O)c1cncc2ccccc12)Nc1ccccc1Oc1ccncc1 [#1177] | –
11 | > 30 µM | > 30 µM | O=C(CNC(=O)c1cncc2ccccc12)Nc1ccccc1Oc1ccccc1 [#1175] | –
12 | – | 4.2 µM | O=C(CNC(=O)c1nccc2ccccc12)Nc1ccccc1Oc1ccncc1 [#1167] | –
13 | > 30 µM | – | O=C(CNC(=O)c1cncc2ccccc12)Nc1cccc(Oc2ccncc2)c1 [#1176] | –
